One data set relates to rodent malaria model. To be noted: cited from earlier work.
The subject of the next data set is P. falciparum. To be noted: cited from earlier work.
Data set [1] has as its system macrophage cell line J774.1. The data set can be described thus: Macrophage assay (Alamar Blue cytotoxicity). It counts as cell-based. Conditions: Mus musculus. The protocol: The macrophage cell line J774.1 was maintained in complete Click RPMI medium. For the experimental procedures cells were detached from the flasks with a rubber police, washed twice with PBS and suspended at 2 x 10^6 cells mL^-1 in complete Click RPMI medium. […] Following the addition of 20 µl of Alamar Blue, the plates were further incubated at similar conditions. The plates were then read 24 and 48 h later. Control experiments to examine the effect of cell density, incubation time and DMSO concentration were performed. Absorbance in the absence of compounds was set as 100 % of growth control.
A general note: Resazurin is reduced to fluorescent resorufin, in cell work by metabolically active cells.

The test system of the next data set is plasmodia. To be noted: after 48 h; previous study; cited from earlier work.
Data set [2] concerns T. brucei brucei laboratory strain TC 221. The data set can be described thus: Trypanosome assay (in vitro cytotoxicity, Alamar Blue). The format is cell-based, Trypanosoma brucei brucei. Conditions: for EC50: Trypanosoma brucei. The protocol:
Parasite culture: Trypomastigote forms of T. brucei brucei laboratory strain TC 221 were cultured in Baltz medium according to standard conditions.^36 In vitro cytotoxicity assays: The test compounds were dissolved in DMSO or 0.1 M NaOH. A defined number of parasites (10^4 trypanosomes per mL) were exposed in test chambers of 96-well plates to various concentrations of the test substances in a final volume of 200 µl. Positive (trypanosomes in culture medium) and negative controls (test substance without trypanosomes) were run with each plate. The plates were then incubated at 37°C in an atmosphere of 5 % CO2 for a total time period of 72 h. […] The effect of test substances was quantified in ED50 values by linear interpolation^18 of three different measurements. The activity of the test substances was measured by light absorption in an MR 700 Microplate Reader at a wavelength of 550 nm with a reference wave length of 630 nm, using the Alamar Blue®.

In a further data set the test system is HIV-1. As to the kind of experiment: HIV-1 infection experiments in PM1 cells, strain not specified (BaL and/or NL4/3). The format is cell-based. To be noted: strain and concentration not given. As for the experimental part:
(§1) HIV-1 infection experiments using the T-cell tropic (X4) strain NL4/3, the macrophage-tropic (R5) strain BaL were routinely performed using PM1 cells (virus laboratory strains and cells were obtained from the NIH AIDS Research and Reference Reagent Program). Cells were cultured in RPMI medium containing 10 % fetal calf serum (Pansystems GmbH) and antibiotics (penicillin and streptomycin). For HIV-1 infection, 5 x 10^7 cells were resuspended in 500 µl culture medium without drugs and incubated at 37 °C for 3 h with 100 ng of HIV-1 viral stocks. After infection, cells were washed twice with PBS without Ca^2+ and Mg^2+ to avoid false positive p24 antigen determination. Cells were resuspended and identical aliquots (5 x 10^5 / mL) of infected cells were further cultured in 24-well plates (triplicates) in the presence of the drugs (dissolved in DMSO) at various concentrations, or in medium with DMSO as control for the calculation of the inhibition of virus replication. Culture medium was changed and cells were splitted twice a week post-infection. Viability of the cells (as measured by Alamar Blue) and p24 antigen levels (as measured by ELISA; Innogenetics N.V.) were determined at different time points.

The test system of data set [3] is R5-tropic HIV-1 strain BaL. The data set can be described thus: HIV-1 infection experiments in PM1 cells, p24 antigen ELISA, strain BaL. The format is cell-based. As for the experimental part: as §1
Background: ELISA stands for enzyme-linked immunosorbent assay.

In data set [4] the test system is X4-tropic HIV-1 strain NL4/3. The data set can be described thus: HIV-1 infection experiments in PM1 cells, p24 antigen ELISA, strain NL4/3. It counts as cell-based. Conditions: concentration of 6 µM, compared to DMSO control cultures. The protocol:
as §1

A further data set deals with HTLV-I. The data set can be described thus: Inhibition of HTLV-I virus production in MT-2 cells (real-time PCR of gag RNA in supernatant). It counts as cell-based. To be noted: Primate T-lymphotropic virus 1, MT2, 240 h, day 10 and 14, read-out: inhibition of virus production in relation to the solvent control. The source says:
For the investigation wether the inhibition of DOHH by the compositions of the invention can influence replication of HTLV-I, the lymphoma cell line MT-2, which is latently infected by HTLV-I was used as a model system (Harada et al., 1985, Infection of HTLV-III/LAV in HTLV-I-carrying cells MT-2 and MT-4 and application in a plaque assay. Science 229, 563-566). MT-2 cells continually produce a high amount of virus particles which are secreted into the cell culture supernatant, and they grow quickly. The experimental approach is based on the comparison of the virus load of cells treated with the potential inhibitor and an untreated control. As the inhibitor was dissolved in DMSO, the same amount of this solvent was added to the control cells.
For investigating the influence of inhibition of DOOH on the replication of HTLV-I, as before, MT-2 cells were cultivated with the determined subtoxic concentrations of compound 11 as well as a solvent control. In regular intervals, cell vitality was determined and the RNA of the virus particles from the supernatant was isolated. After reverse transcription with a primer specific for the gag region of HTLV-I RNA, the cDNA was quantified by real-time PCR. For detection of the amplified DNA, a gag-specific probe was used. A plasmid comprising the HTLV-I provirus served as a standard. […]

In another data set the test system is MT-2 cells. It counts as cell-based. Conditions: human, 10 days, 10 µM. As for the experimental part:
First, the subtoxic concentration of the inhibitor was determined by vitality assays. MT-2 cells were cultured for 14 days with 10, 5, 2.5 and 1.5 µM of the inhibitor as well as DMSO as a solvent control. In regular intervals, samples for determination of the vitality of the cells were taken. Vitality was tested with the alamarBlue®-Assays.

The mark [5] stands for this setting: J774.1 macrophages, after 48h, read-out: ED50 [µM] Macrophage after 48h.
Setting [6] is: strain TC 221, 10^4 trypanosomes per mL, incubated 72 h, reading at 48 h, Alamar Blue, read-out: ED50 [µM] T. brucei brucei.

We go through 8 compounds from patent EP2036556A1, “Piperidone derivatives and medical uses thereof” (Heinrich-Pette-Institut, priority 2007, dated 2009).

Where two headings read alike, the source gives them in different places. A value given as a limit tells only on which side of the number the result lay.

As to `N[C@@H](Cn1ccc(=O)c(O)c1)C(=O)O` [mimosine, L-mimosine], in the data set on rodent malaria model (in vivo), the toxicity in vivo result is recorded as “toxic”. Also, the IC50 with P. falciparum (chloroquine resistant (CQR) strain, read-out: IC50 antiplasmodial effect) was 39 µM; in the data set on P. falciparum (chloroquine susceptible (CQS) strain, read-out: IC50 antiplasmodial effect) it was 32 µM.

Consider `COC(=O)C1=C(O)C[C@@H](c2ccccn2)N(Cc2ccc(Cl)cc2)[C@H]1c1ccccn1` [Compound 21, Methyl (2'R,6'S)-1'-(4-chlorobenzyl)-4'-hydroxy-1',2',5',6'-tetrahydro-2,2';6',2''-terpyridine-3'-carboxylate], for which the EC50 in data set [1] (setting [5]) amounted to 32.8 ± 0.49 µM; in [2] (setting [6]), 0.32 ± 0.09 µM. Further, the “activity against the plasmodia” value in the data set on plasmodia is “high activity”.

Regarding `Cc1cc(C2CCCCC2)n(O)c(=O)c1` [Ciclopiroxolamine, reference compound], the EC50 in data set [1] (J774.1, reference substance, for comparison, 48 h, read-out: ED50 (macrophages, 48 h)) is 4.62 ± 0.97 µM; in [2] (reference substances, for comparison (title of Table 1), read-out: ED50 (T. brucei brucei)) it was 0.62 ± 0.22 µM. Besides, in the data set on rodent malaria model (rodent malaria model), the efficacy in vivo entry was “ineffective in vivo”. For the same compound, the IC50 in the data set on P. falciparum (chloroquine sensitive (CQS) NF54 P. falciparum strain, read-out: IC50 in vitro proliferation) is 8.2 µM.

As for `CCOC(=O)C1=C(O)C(C(=O)OCC)[C@H](c2ccc([N+](=O)[O-])cc2)N(Cc2ccccc2)[C@H]1c1ccc([N+](=O)[O-])cc1` (stereo partly drawn) [Compound 13, Diethyl (2R,6S)-1-benzyl-4-hydroxy-2,6-bis(4-nitrophenyl)-1,2,3,6-tetrahydropyridine-3,5-dicarboxylate], the EC50 in data set [1] (setting [5]) is over 100 µM; in data set [2] (setting [6]), 2.72 ± 0.51 µM. Also, the “inhibition of virus replication” value in the data set with HIV-1 was 20%.

Regarding `Cl.Clc1cccc(Cl)c1CON=CC1CCN(CCCc2ccccc2)CC1` [Compound 53, 4-[(2,6-Dichloro-benzyloxyimino)-methyl]-1-(3-phenyl-propyl)-piperidinium hydrochloride], the inhibition at 10 µM in [3] (Human immunodeficiency virus 1, HIV-1 BaL infected PM1 cells, concentration of 10 µM, read-out: virus replication inhibited) was 85%. The results for the EC50 in data set [1] (setting [5]) and in data set [2] (setting [6]) were 28.4 ± 5.92 µM and 3.86 ± 1.95 µM, respectively. The “activity against trypanosomes (in words)” value in data set [2] (statement of the discussion) is given as “active against trypanosomes”.

`C=CCN1[C@@H](c2ccccn2)C(C(=O)OC)=C(O)C[C@H]1c1ccccn1` [Compound 24, Methyl (2'R,6'S)-1'-allyl-4'-hydroxy-1',2',5',6'-tetrahydro-2,2';6',2''-terpyridine-3'-carboxylate]: the EC50 in data set [1] (setting [5]) was determined as 35 µM; in [2] (setting [6]), 1.08 ± 0.48 µM. In addition, in the data set on plasmodia, the “activity against the plasmodia” value was “high activity”.

`COC(=O)C1=C(O)C(C(=O)OC)[C@H](c2ccc([N+](=O)[O-])cc2)N(Cc2ccccc2)[C@H]1c1ccc([N+](=O)[O-])cc1` (stereo partly drawn) [Compound 12, Dimethyl (2R,6S)-1-benzyl-4-hydroxy-2,6-bis(4-nitrophenyl)-1,2,3,6-tetrahydropyridine-3,5-dicarboxylate]: the values for the EC50 in [1] (setting [5]) and in [2] (setting [6]) were 18.4 ± 2.93 µM and 3.01 ± 0.27 µM, respectively. In addition, the “inhibition of virus replication” value in the data set on HIV-1 worked out at 20%.

Turning to `C=CCN1[C@@H](c2ccc([N+](=O)[O-])cc2)C(C(=O)OCC)=C(O)C(C(=O)OCC)[C@@H]1c1ccc([N+](=O)[O-])cc1` (stereo partly drawn) [Compound 11, Diethyl (2R,6S)-1-allyl-4-hydroxy-2,6-bis(4-nitrophenyl)-1,2,3,6-tetrahydropyridine-3,5-dicarboxylate], the “inhibition of replication of HIV-1 NL4/3” value in data set [4] is “completely inhibit”. In [3] (PM1 cells, concentration of 5 µM, compared to DMSO control cultures), the “inhibition of replication of HIV-1 BaL” value is reported as “completely inhibit”. The inhibition at 2.5 µM in the data set with HTLV-I (2.5 µM) is over 90%. Besides, the inhibition at 5 µM with HTLV-I (5 µM) is over 80%. Further, the results for the EC50 in data set [1] (setting [5]) and in data set [2] (setting [6]) were over 100 µM and 3.06 ± 0.55 µM, respectively. The “death of the cells” value with MT-2 cells amounted to 90%.
